Results published in patent US11034650B2, “Compounds useful for treating a Mannheimia haemolytica or Histophilus somni infection” (Intervet Inc., priority 2016, dated 2021).
In brackets after ≈: the same amount, converted by molar mass.

Legend:
Assay type in all cases: cell-based
[1] = test system: Mannheimia haemolytica MH 6357 (M7/2, reference strain, cattle infection strain); test: MIC, broth-microdilution (CLSI VET01-A4), strain MH 6357; conditions: Mannheimia haemolytica strain MH 6357, broth-microdilution; unit assumed
In short: (§1)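 Doubling dilution series in trays; visual read, MIC = lowest conc. with no visible turbidity; interpretation per CLSI VET01-S3.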

[2] = test system: Mannheimia haemolytica MH 6374 (ATCC 33396, reference strain); test: MIC, broth-microdilution (CLSI VET01-A4), strain MH 6374; conditions: Mannheimia haemolytica strain MH 6374, broth-microdilution; unit assumed
In short: as §1

[3] = test system: Mannheimia haemolytica MH 10720 (154, BRD field isolate); test: MIC, broth-microdilution (CLSI VET01-A4), strain MH 10720; conditions: Mannheimia haemolytica strain MH 10720, broth-microdilution; unit assumed
In short: as §1

[4] = test system: Mannheimia haemolytica MH 12587 (1071, BRD field isolate, macrolide-resistance: erm+, E+); test: MIC, broth-microdilution (CLSI VET01-A4), strain MH 12587; conditions: Mannheimia haemolytica strain MH 12587, broth-microdilution; unit assumed
In short: as §1

[5] = test system: Mannheimia haemolytica MH 13065 (XB0446-6003.9, BRD field isolate); test: MIC, broth-microdilution (CLSI VET01-A4), strain MH 13065; conditions: Mannheimia haemolytica strain MH 13065, broth-microdilution; unit assumed
In short: as §1

[6] = test system: Mannheimia haemolytica MH 13093 (XB0472-6014.1, BRD field isolate); test: MIC, broth-microdilution (CLSI VET01-A4), strain MH 13093; conditions: Mannheimia haemolytica strain MH 13093, broth-microdilution; unit assumed
In short: as §1

[7] = test system: Pasteurella multocida PM 6267 (P 2225 (L386), reference strain, mouse infection strain); test: MIC, broth-microdilution (CLSI VET01-A4), strain PM 6267; conditions: Pasteurella multocida strain PM 6267, broth-microdilution; unit assumed
In short: as §1

[8] = test system: Pasteurella multocida PM 6391 (ATCC 43137, reference strain); test: MIC, broth-microdilution (CLSI VET01-A4), strain PM 6391; conditions: Pasteurella multocida strain PM 6391, broth-microdilution; unit assumed
In short: as §1

[9] = test system: Pasteurella multocida PM 10775 (080130003051, BRD field isolate); test: MIC, broth-microdilution (CLSI VET01-A4), strain PM 10775; conditions: Pasteurella multocida strain PM 10775, broth-microdilution; unit assumed
In short: as §1

[10] = test system: Pasteurella multocida PM 12080 (IV102277-0093, BRD field isolate); test: MIC, broth-microdilution (CLSI VET01-A4), strain PM 12080; conditions: Pasteurella multocida strain PM 12080, broth-microdilution; unit assumed
In short: as §1

Structure (SMILES)	MIC MH 6357 [1]	MIC MH 6374 [2]	MIC MH 10720 [3]	MIC MH 12587 [4]	MIC MH 13065 [5]	MIC MH 13093 [6]	MIC PM 6267 [7]	MIC PM 6391 [8]	MIC PM 10775 [9]	MIC PM 12080 [10]
CC[C@H](C)[C@H](NC(=O)c1ccc(C#Cc2ccc(CNCc3cccnc3)cc2)cc1)C(=O)NO [Compound 179]	0.4 mg/L (≈ 0.85 µM)	0.8 mg/L (≈ 1.7 µM)	≤ 0.1 mg/L	1.6 mg/L (≈ 3.4 µM)	0.8 mg/L (≈ 1.7 µM)	0.8 mg/L (≈ 1.7 µM)	0.2 mg/L (≈ 0.425 µM)	1.6 mg/L (≈ 3.4 µM)	≤ 0.1 mg/L	0.4 mg/L (≈ 0.85 µM)
CSC(C)(C)[C@H](NC(=O)c1ccc(C#Cc2ccc(CNCc3ncc(C)o3)s2)cc1)C(=O)NO [Compound 310]	1.6 mg/L (≈ 3.12 µM)	0.8 mg/L (≈ 1.56 µM)	0.4 mg/L (≈ 0.78 µM)	3.1 mg/L (≈ 6.05 µM)	1.6 mg/L (≈ 3.12 µM)	1.6 mg/L (≈ 3.12 µM)	1.6 mg/L (≈ 3.12 µM)	0.4 mg/L (≈ 0.78 µM)	0.4 mg/L (≈ 0.78 µM)	0.8 mg/L (≈ 1.56 µM)
CC(C)([C@H](NC(=O)c1ccc(C#Cc2ccc(CN3CCOCC3)cc2)cc1)C(=O)NO)S(C)(=O)=O [Compound 258]	1.6 mg/L (≈ 3.12 µM)	1.6 mg/L (≈ 3.12 µM)	0.2 mg/L (≈ 0.389 µM)	1.6 mg/L (≈ 3.12 µM)	0.8 mg/L (≈ 1.56 µM)	1.6 mg/L (≈ 3.12 µM)	≤ 0.1 mg/L	≤ 0.1 mg/L	≤ 0.1 mg/L	≤ 0.1 mg/L
O=C(N[C@@H](CO)C(=O)NO)c1ccc(C#Cc2ccc(CNCc3ccco3)cc2)cc1 [Compound 159]	1.6 mg/L (≈ 3.69 µM)	1.6 mg/L (≈ 3.69 µM)	0.4 mg/L (≈ 0.923 µM)	3.1 mg/L (≈ 7.15 µM)	3.1 mg/L (≈ 7.15 µM)	3.1 mg/L (≈ 7.15 µM)	0.2 mg/L (≈ 0.461 µM)	0.8 mg/L (≈ 1.85 µM)	≤ 0.1 mg/L	0.4 mg/L (≈ 0.923 µM)
COCCNCc1ccc(C#Cc2ccc(C(=O)N[C@H](C(=O)NO)C(C)(C)SC)cc2)cc1 [C.237]	1.6 mg/L (≈ 3.41 µM)	1.6 mg/L (≈ 3.41 µM)	0.2 mg/L (≈ 0.426 µM)	3.1 mg/L (≈ 6.6 µM)	1.6 mg/L (≈ 3.41 µM)	1.6 mg/L (≈ 3.41 µM)	0.2 mg/L (≈ 0.426 µM)	0.8 mg/L (≈ 1.7 µM)	≤ 0.1 mg/L	0.4 mg/L (≈ 0.852 µM)
CSC(C)(C)[C@H](NC(=O)c1ccc(C#Cc2ccc(CNCC3CCCO3)cc2)cc1)C(=O)NO (some centres unmarked) [Compound 253]	3.1 mg/L (≈ 6.25 µM)	3.1 mg/L (≈ 6.25 µM)	0.8 mg/L (≈ 1.61 µM)	3.1 mg/L (≈ 6.25 µM)	1.6 mg/L (≈ 3.23 µM)	3.1 mg/L (≈ 6.25 µM)	≤ 0.1 mg/L	0.4 mg/L (≈ 0.807 µM)	≤ 0.1 mg/L	0.4 mg/L (≈ 0.807 µM)
CC(=O)[C@H](NC(=O)c1ccc(C#Cc2ccc(CNCc3ccc(C)cc3)cc2)cc1)C(=O)NO [Compound 412]	1.6 mg/L (≈ 3.41 µM)	1.6 mg/L (≈ 3.41 µM)	1.6 mg/L (≈ 3.41 µM)	0.4 mg/L (≈ 0.852 µM)	1.6 mg/L (≈ 3.41 µM)	1.6 mg/L (≈ 3.41 µM)	6.3 mg/L (≈ 13.4 µM)	≤ 0.1 mg/L	0.4 mg/L (≈ 0.852 µM)	0.2 mg/L (≈ 0.426 µM)
CC(C)(O)[C@H](NC(=O)c1ccc(C#Cc2ccc(CNCc3ccco3)s2)cc1)C(=O)NO [Compound 298]	≤ 0.1 mg/L	0.2 mg/L (≈ 0.428 µM)	≤ 0.1 mg/L	0.4 mg/L (≈ 0.856 µM)	0.2 mg/L (≈ 0.428 µM)	0.4 mg/L (≈ 0.856 µM)	0.4 mg/L (≈ 0.856 µM)	≤ 0.1 mg/L	≤ 0.1 mg/L	≤ 0.1 mg/L
CC(C)(O)[C@H](NC(=O)c1ccc(C#Cc2ccc(CNCc3nccs3)s2)cc1)C(=O)NO [Compound 359]	0.4 mg/L (≈ 0.825 µM)	0.2 mg/L (≈ 0.413 µM)	≤ 0.1 mg/L	0.4 mg/L (≈ 0.825 µM)	0.2 mg/L (≈ 0.413 µM)	0.4 mg/L (≈ 0.825 µM)	≤ 0.1 mg/L	≤ 0.1 mg/L	0.2 mg/L (≈ 0.413 µM)	≤ 0.1 mg/L
CC(C)([C@H](NC(=O)c1ccc(C#Cc2ccc(CNC3CC3)s2)cc1)C(=O)NO)S(C)(=O)=O [C.311]	0.2 mg/L (≈ 0.408 µM)	≤ 0.1 mg/L	≤ 0.1 mg/L	0.4 mg/L (≈ 0.817 µM)	≤ 0.1 mg/L	0.4 mg/L (≈ 0.817 µM)	0.4 mg/L (≈ 0.817 µM)	≤ 0.1 mg/L	≤ 0.1 mg/L	≤ 0.1 mg/L
CSC(C)(C)[C@H](NC(=O)c1ccc(C#Cc2ccc(CNCC(F)(F)F)s2)cc1)C(=O)NO [Compound 309]	0.8 mg/L (≈ 1.6 µM)	0.8 mg/L (≈ 1.6 µM)	≤ 0.1 mg/L	1.6 mg/L (≈ 3.2 µM)	0.8 mg/L (≈ 1.6 µM)	1.6 mg/L (≈ 3.2 µM)	1.6 mg/L (≈ 3.2 µM)	0.4 mg/L (≈ 0.801 µM)	≤ 0.1 mg/L	0.4 mg/L (≈ 0.801 µM)
